Columns and labels:
[1] = molecular target: PDHK2 (Homo sapiens (Human), UniProt Q15119); test: Biochemical activity testing of PDHK2: PDC inactivation assay; details: human rec PDHK2, PDC from porcine heart, ATP 5 μM; read-out: IC50 PDHK2 (enzyme assay)
Description: Biochemical Activity Testing of PDHK2: PDC Inactivation Assay
The biochemical activity assay for PDHK2 is based on the inactivation of PDC through phosphorylation by PDHK2. The assay is run in two steps: the enzymatic PDHK2 reaction in which isolated PDC is phosphorylated by PDHK2 with ATP as co-substrate and the PDC activity assay in which pyruvate and NAD are converted to acetyl-CoA and NADH. The PDC activity correlates to the increase in NADH and thereby is detectable directly via the increasing fluorescence signal (Exc 340 nm, Em 450 nm). Inhibition of PDHK2 results in a lower phosphorylation status and thereby a less decrease in activity of PDC and a stronger increase in NADH fluorescence signal.
The PDC inactivation assay is performed in Greiner 384-well microtiter plates and is used for high throughput screen. 4 μl of PDHK2 (human, rec, Carna Bioscience, 10 ng/μl-137 nM final concentration) and PDC (isolated from porcine heart, Sigma-Aldrich, 20 mU/ml final concentration) are incubated in the absence or presence of the test compound (10 dilution concentrations) for 30 min at room temperature in kinase buffer (15 mM potassium phosphate buffer, pH 7.0, 60 mM KCl, 1.5 mM DTT, 2.5 mM MgCl2, 0.0125% (w/v) BSA, 0.125% Pluronic F-68). The kinase reaction is started by the addition of 4 μl ATP substrate solution (fc 5 μM in kinase buffer). After 30 min incubation at 37° C. 40 μl of PDC reaction solution (100 mM Tris/HCl, pH 7.8, 0.5 mM EDTA, 1 mM MgCl2, 50 mM NaF, 0.25 mM Coenzyme A, 5 mM pyruvate, 1 mM NAD, 5 mM DTT, 1 mM thiamine pyrophosphate) is added. The first fluorescence measurement is performed on a Perkin Elmer Envision (Exc 340 nm, Em 450 nm). The reaction is incubated for 45 min at room temperature. Afterwards a second fluorescence measurement is performed and the PDC activity is calculated by the difference between both measurements. As full value for the PDHK2 assay the inhibitor-free PDHK2 reaction is used. The pharmacological zero value used is DCA (Sigma-Aldrich) in a final concentration of 3 mM. The inhibitory values (IC50) were determined using either the program Symyx Assay Explorer® or Condosseo® from GeneData.

[2] = molecular target: human PDHK2 (12-407) (Homo sapiens (Human), UniProt Q15119); test: Isothermal titration calorimetry (ITC) binding; details: 30° C., pH 7.5
Method: Isothermal Titration Calorimetry
ITC measurements were performed with a VP-ITC micro calorimeter (Microcal, LLC/GE Healthcare Bio-Sciences AB, Uppsala, Sweden). In general titrations were performed by titrating the protein (50 μM) to the test compound (5 μM) in 12 μl injections. All binding experiments were carried out at 30° C. In general the test compounds were diluted form DMSO stock solutions into the measurement buffer with a maximum final concentration of 1% DMSO. The measurement buffer was 20 mM HEPES, 135 mM KCl, 1 mM TCEP, 2 mM MgCl2, 15 mM NaH2PO4, pH 7.5. The human PDHK2 (12-407) was produced in E. coli as his-tagged protein and purified by affinity chromatography. The tag was removed by side specific proteolysis. Before titration the protein buffer was changed to the measurement buffer containing the same DMSO concentration as the test compound dilution. ITC data analysis was performed using Origin 7 calorimetry software from the same supplier. For most measurements a binding model of one binding site was assumed. According to the applied mathematical model it is possible to calculate the binding constant (KA), the observed binding enthalpy (ΔH^obs) as well as the stoichiometry (N) of the formed complex. Preceding analysis the raw data was corrected for the heats of dilution by extrapolating from the saturation value from the end of titration. In order to allow for direct comparison between the respective experimental series and protein preparations the protein concentration was corrected by referencing titrations to a well behaved standard inhibitor. The apparent stoichiometry values defined the fraction of binding competent protein and compensated for relative errors in protein concentration measurements. This corrected protein concentration was used to set up ITC experiment series with test compounds. Any deviations from ideal 1:1 stoichiometry observed here were attributed to errors in compound concentration. This nominal compound concentration was corrected as well to achieve 1:1 stoichiometry in the fit.

[3] = tested on: PDH-E1alpha (pSer300) in HEK293T cells; test: Cellular immunofluorescence assay, PDH-E1alpha (pSer300); type: cell-based; details: Homo sapiens, HEK-293T, 5 hours incubation, read-out: IC50 (cell data)
Method: Cellular Assay for Determination of Compound Activities
Compound activities were determined in a cellular immunofluorescence assay. Human HEK293T cells were seeded into black 384-well plates with clear bottom and grown overnight.
Next day, test compounds were added to the wells and the plates incubated for 5 hours. Following this, cells were fixed with formaldehyde, permeabilised and blocked. The primary antibody, Anti-PDH-E1alpha (pSer300), AP1064 (Merck Millipore) was added and incubated overnight in the plate wells. Next, cells were washed and the seconday antibody, Alexa Fluor 488, goat anti-rabbit ab (A-11008, Invitrogen) was added together with Hoechst 33258 (H3569, Invitrogen) and incubated for 1 hour in the plate wells. Finally, cells were washed and the plates were measured on the laser scanning cytometer acumen hci (TTpLabtech).
The raw data were normalized against a pharmacological inhibitor control and dose response curves were generated by plotting the percent effect values using the software package Genedata screener (Genedata).

| Structure (SMILES) | IC50 [1] [nM] | Kd [2] [nM] | IC50 [3] [nM] |
| --- | --- | --- | --- |
| Cc1nnc(C2(C3CCN(C(=O)[C@@](C)(O)C(F)(F)F)CC3)CC2)o1 [Compound A7, (R)-3,3,3-Trifluoro-2-hydroxy-2-methyl-1-{4-[1-(5-methyl-[1,3,4]oxadiazol-2-yl)-cyclopropyl]-piperidin-1-yl}-propan-1-one] | 3500 | 850 | > 30000 |
| C[C@@H]1CN(C(=O)[C@@](C)(O)C(F)(F)F)CC[C@@H]1C1(c2nnc(-c3ccccc3)o2)CC1 (stereo in doubt) [Compound A16, (R)-3,3,3-Trifluoro-2-hydroxy-2-methyl-1-{(R)-3-methyl-4-[1-(5-phenyl-[1,3,4]oxadiazol-2-yl)-cyclopropyl]-piperidin-1-yl}-propan-1-one] | 150 | 4.9 | 35 |
| C[C@@](O)(C(=O)N1CCC(C2(c3nnc(-c4ccccc4)[nH]3)CC2)CC1)C(F)(F)F [Compound A1, (R)-3,3,3-Trifluoro-2-hydroxy-2-methyl-1-{4-[1-(5-phenyl-1H-[1,2,4]triazol-3-yl)-cyclopropyl]-piperidin-1-yl}-propan-1-one] | 590 | 110 | 3000 |
| CC(C)(c1nnc(-c2ccccc2)o1)C1CCN(C(=O)[C@@](C)(O)C(F)(F)F)CC1 [Compound A9, (R)-3,3,3-Trifluoro-2-hydroxy-2-methyl-1-{4-[1-methyl-1-(5-phenyl-[1,3,4]oxadiazol-2-yl)-ethyl]-piperidin-1-yl}-propan-1-one] | 720 | 50 | 650 |
| CC(C)(C)c1nnc(C2(C3CCN(C(=O)[C@@](C)(O)C(F)(F)F)CC3)CC2)o1 [Compound A8, (R)-1-{4-[1-(5-tert-Butyl-[1,3,4]oxadiazol-2-yl)-cyclopropyl]-piperidin-1-yl}-3,3,3-trifluoro-2-hydroxy-2-methyl-propan-1-one] | 2400 | 650 | 8700 |
| CC(C)(c1nnc(-c2ccccc2)[nH]1)C1CCN(C(=O)[C@@](C)(O)C(F)(F)F)CC1 [Compound A3, (R)-3,3,3-Trifluoro-2-hydroxy-2-methyl-1-{4-[1-methyl-1-(5-phenyl-4H-[1,2,4]triazol-3-yl)-ethyl]-piperidin-1-yl}-propan-1-one] | 320 | 98 | 3300 |
| COc1ccc(-c2nnc(C3([C@H]4CCN(C(=O)[C@@](C)(O)C(F)(F)F)C[C@H]4C)CC3)[nH]2)cn1 [Compound A40, (R)-3,3,3-Trifluoro-2-hydroxy-1-((3S,4S)-4-{1-[5-(6-methoxy-pyridin-3-yl)-4H-[1,2,4]triazol-3-yl]-cyclopropyl}-3-methyl-piperidin-1-yl)-2-methyl-propan-1-one] | 91 | 6.5 | 25 |
| Cc1ccc(-c2nnc(C3([C@H]4CCN(C(=O)[C@@](C)(O)C(F)(F)F)C[C@H]4C)CC3)[nH]2)cc1 [Compound A22, (R)-3,3,3-Trifluoro-2-hydroxy-2-methyl-1-{(3S,4S)-3-methyl-4-[1-(5-p-tolyl-4H-[1,2,4]triazol-3-yl)-cyclopropyl]-piperidin-1-yl}-propan-1-one] | 90 | 2.6 | 16 |
| Cc1ccc(-c2nnc(C3([C@H]4CCN(C(=O)[C@@](C)(O)C(F)(F)F)C[C@H]4C)CC3)o2)cc1 [Compound A25, (R)-3,3,3-Trifluoro-2-hydroxy-2-methyl-1-{(3S,4S)-3-methyl-4-[1-(5-p-tolyl-[1,3,4]oxadiazol-2-yl)-cyclopropyl]-piperidin-1-yl}-propan-1-one] | 100 | 4.1 | 30 |
| CC1CN(C(=O)[C@@](C)(O)C(F)(F)F)CCC1C1(c2nnc(-c3ccccc3)o2)CC1 (stereo partly drawn) [Compound A12, (R)-3,3,3-Trifluoro-2-hydroxy-2-methyl-1-{3-methyl-4-[1-(5-phenyl-[1,3,4]oxadiazol-2-yl)-cyclopropyl]-piperidin-1-yl}-propan-1-one] | 270 | 8.7 | 56 |

From patent US11026936B2, “Piperidinyl-propanone derivatives” (Merck Patent GmbH, priority 2016, dated 2021)
